Assay [1] concerns the target Stimulator of interferon genes protein (Homo sapiens) (UniProt Q86WV6). In words: Agonist activity at STING in human THP1 cells assessed as assessed as increase in IFNbeta secretion at 30 uM measured after 5 hrs by AlphaLISA assay relative to 2'3'-cGAMP. Format: cell-based. The settings on record: THP-1. (Bead proximity is the source of the signal in Alpha formats.)

Assay [2] addresses Stimulator of interferon genes protein (Homo sapiens, UniProt Q86WV6, G230A/R293Q/R71H). As to the kind of experiment: Activation of full length human STNG R71H/G230A/R293Q mutant expressed in Trichoplusia ni cell membrane incubated for 60 mins followed by addition of [3H]cGAMP by competitive binding assay. It counts as cell membranes.

Structures are written as SMILES.

Chain of Stimulator of interferon genes protein (Q86WV6 whole entry R71H/G230A/R293Q): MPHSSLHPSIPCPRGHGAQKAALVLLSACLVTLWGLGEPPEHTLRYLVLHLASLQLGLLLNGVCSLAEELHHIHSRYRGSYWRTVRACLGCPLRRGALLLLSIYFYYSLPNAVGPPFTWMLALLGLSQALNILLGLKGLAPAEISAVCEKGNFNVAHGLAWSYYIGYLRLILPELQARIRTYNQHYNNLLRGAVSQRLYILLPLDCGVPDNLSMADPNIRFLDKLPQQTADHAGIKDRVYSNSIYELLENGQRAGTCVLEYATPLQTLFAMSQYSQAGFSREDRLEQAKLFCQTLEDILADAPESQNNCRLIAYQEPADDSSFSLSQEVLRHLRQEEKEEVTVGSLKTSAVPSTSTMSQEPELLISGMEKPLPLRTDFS
Chain of Stimulator of interferon genes protein (Homo sapiens) (Q86WV6 whole entry): as the sequence (Q86WV6 whole entry R71H/G230A/R293Q) above, with H71R, A230G, Q293R counted along it

What is called EC50 is the concentration giving half of the maximal effect. Low values mean an effect from little substance, high ones a need for much substance. With `CCC(CC(=O)c1cc2nc(OC)c(OC)cc2s1)C(=O)O` (configuration not stated), the Activity in assay [1] was 85%. This molecule gave an EC50 in assay [2] of 1.75 µM.

Turning to `COc1cc2sc(C(=O)C[C@H](C)C(=O)O)nc2cc1Br`, the Activity in assay [1] amounted to 11%. Also, the response in assay [2] was half-maximal at 10.6 µM (EC50).

In the case of `COc1cc2nc(C(=O)CCC(=O)O)sc2cc1OC`, the Activity in assay [1] is 56%. The molecule also yielded an EC50 in assay [2] of 13.3 µM.

On to `COc1cc2sc(C(=O)C3CC3C(=O)O)cc2nc1OC` (configuration not stated), for which the Activity in assay [1] is 100%. The midpoint of the response in assay [2], the EC50, lay at 1.15 µM.

Turning to `COc1cc2cc(C(=O)CCC(=O)O)sc2nc1OC`, in assay [1], the Activity turned out to be 146%. The molecule further had an EC50 in assay [2] of 5.51 µM.

With `COc1cc2sc(C(=O)C[C@H](C)C(=O)O)nc2nc1OC`, the Activity in assay [1] came to 14%. The molecule also registered an EC50 in assay [2] of 10.1 µM.

The values above are taken from ChEMBL document CHEMBL4616684, “Potential Cancer Treatment by Agonists of the Stimulator of Interferon Genes” (ACS Med Chem Lett, 2020).
